Values after ≈ are worked out from the molar mass of the structure shown.
How the values were obtained:
[1] = test system: S. aureus N315 mutant Mt50DscA.6; assay: Susceptibility (MIC) of Disciformycin A-resistant mutant; type: cell-based; details: Staphylococcus aureus
[2] = test system: S. aureus N315 mutant Mt50DscA.2; assay: as above; type: cell-based; details: Staphylococcus aureus
[3] = test system: S. aureus N315 mutant Mt50DscA.4; assay: as above; type: cell-based; details: Staphylococcus aureus
[4] = test system: S. aureus N315 wildtype (WT); assay: Susceptibility (MIC) of S. aureus N315 wildtype; type: cell-based; details: Staphylococcus aureus
[5] = test system: S. aureus N315 Mt50DscA.9; assay: Susceptibility (MIC) of Disciformycin A-resistant mutant; type: cell-based; details: Staphylococcus aureus
[6] = test system: K-562 cells; assay: Antiproliferative effect (CellTiter-Blue); type: cell-based, human; details: K-562, at a concentration of 100 μM
Protocol: The human monocytic cell line Mono Mac 6 was cultured in RPMI 1640 medium supplemented with FCS (10%, v/v), penicillin (100 U/ml), streptomycin (100 μg/ml), insulin (10 μg/ml), oxaloacetic acid (1 mM), sodium pyruvate (1 mM), and 1× non-essential amino acids at 37° C. and 5% CO2. A-549 cells (DSM ACC-107) were cultured in DMEM high glucose (4.5 g/l) medium supplemented with FCS (10% v/v), penicillin (100 U/ml) and streptomycin (100 μg/ml) at 37° C. in a 5% CO2 incubator. K-562 (DSM ACC 10) and HeLa cells (DSM ACC 57) were grown in RPMI 1640, whereas cells of HUVEC (ATCC CRL-1730) were cultured in DMEM medium. The respective media were supplemented with ultraglutamine 1 (10 ml/l), gentamicin sulfate (500 μl/l), and FCS (10% v/v).
The test substances were dissolved in methanol before being diluted in DMEM. The adherent cells were harvested at the logarithmic growth phase after soft trypsinization using 0.25% trypsin in PBS containing 0.02% EDTA. For each experiment, approximately 10,000 cells were seeded with 0.1 ml culture medium per well of the 96-well microplates. […] In case of K-562 cells, the number of viable cells in every well was determined using the CellTiter-Blue1 assay. […] The optical densities were measured at 660 nm in a SUNRISE microplate reader (TECAN).

[7] = test system: S. aureus N315 mutant Mt50DscA.8; assay: Susceptibility (MIC) of Disciformycin A-resistant mutant; type: cell-based; details: Staphylococcus aureus
[8] = test system: primary monocytes from human peripheral blood; assay: MTT assay, cytotoxic activity; type: cell-based; details: incubation 24 or 48 hours
Protocol: The cytotoxic activity of gulmirecin A (3) and gulmirecin B (4) against human cells was evaluated in the well-established MTT assay using primary monocytes from human peripheral blood as well as transformed lung epithelial cell A-549 cell and leukemic Mono Mac 6 cells. Furthermore, 3 and 4 were tested against K-562, HUVEC, and HeLa cells.
Human primary monocytes were isolated from leukocyte concentrates, obtained from the Institute of Transfusion Medicine at the University Hospital Jena, Germany. The concentrates were prepared from the blood of healthy adult human donors who had not taken any anti-inflammatory medication for the 10 days prior to blood donation, as described. In brief, freshly withdrawn peripheral blood was pretreated with citrate-phosphate-dextrose solution as anticoagulant and processed with the 2C+ protocol of the Atreus Whole Blood Processing System (Terum BCT). Peripheral blood mononuclear cells (PBMC) were isolated by dextran sedimentation and centrifugation on LSM 1077 lymphocyte separation medium (PAA Laboratories). For isolation of monocytes, the PBMC were washed twice with ice-cold phosphate buffered saline (PBS) and plated (density 2×10^7 cells/ml) in culture flasks (Greiner Bio-One) containing PBMC medium (RPMI 1640 medium supplemented with 100 U/ml penicillin, 100 μg/ml streptomycin and 2 mM L-glutamine) for 1.5 hours at 37° C., 5% CO2. Non-adherent cells were removed; adherent monocytes were scraped, washed with ice-cold PBS and resuspended in ice-cold PBS with a purity of >85%, defined by forward- and side-light scatter properties and detection of the CD14 surface molecule by flow cytometry (BD FACS Calibur). […]
Cells (3×10^5 Mono Mac 6, 1×10^5 A-549 cells, or 2×10^6 monocytes per well) were seeded in a 96-well plate in the respective medium (100 μl/well). […] Absorbance of each well was measured at 570 nm in a Multiskan™ microplate spectrophotometer (Thermo Scientific).

[9] = test system: S. aureus N315 mutant Mt50DscA.3; assay: Susceptibility (MIC) of Disciformycin A-resistant mutant; type: cell-based; details: Staphylococcus aureus
[10] = test system: S. aureus N315 mutant Mt50DscA.11; assay: as above; type: cell-based; details: Staphylococcus aureus
[11] = test system: S. aureus N315 mutant Mt50DscA.1; assay: as above; type: cell-based; details: Staphylococcus aureus
[12] = test system: S. aureus N315 mutant Mt50DscA.5; assay: as above; type: cell-based; details: Staphylococcus aureus
[13] = test system: S. aureus N315 mutant Mt50DscA.10; assay: as above; type: cell-based; details: Staphylococcus aureus

| Compound | MIC [1] [µg/mL] | MIC [2] [µg/mL] | MIC [3] [µg/mL] | MIC [4] [µg/mL] | MIC [5] [µg/mL] | inhibition of proliferation [6] | MIC [7] [µg/mL] | cell viability / cytotoxicity (MTT) [8] | MIC [9] [µg/mL] | MIC [10] [µg/mL] | MIC [11] [µg/mL] | MIC [12] [µg/mL] | MIC [13] [µg/mL] |
| --- | --- | --- | --- | --- | --- | --- | --- | --- | --- | --- | --- | --- | --- |
| C/C=C(/C)[C@H]1C/C=C(\C)[C@@H](O[C@H]2O[C@H](CO)[C@@H](O)[C@@H]2O)[C@H](O)C(=O)CC[C@H](C)C(=O)O1 [Compound 4, gulmirecin B] | > 64 | > 64 | > 64 | 32 (≈ 72.3 µM) | > 64 | did not inhibit | > 64 | no reduction in cell viability at the concentrations required for antibacterial activity | > 64 | > 64 | > 64 | > 64 | > 64 |
| C/C=C(/C)[C@H]1C/C=C(\C)[C@@H](O[C@H]2O[C@H](CO)[C@@H](O)[C@@H]2O)[C@H](OC(=O)CC(C)C)C(=O)C[C@@H](O)[C@H](C)C(=O)O1 [Compound 3, gulmirecin A] | > 64 | > 64 | > 64 | 4 (≈ 7.37 µM) | > 64 | did not inhibit | > 64 | no reduction in cell viability at the concentrations required for antibacterial activity | > 64 | > 64 | > 64 | 64 (≈ 118 µM) | > 64 |
| C/C=C(/C)[C@H]1C/C=C(\C)[C@@H](O[C@H]2O[C@H](CO)[C@@H](O)[C@@H]2O)[C@H](OC(=O)CC(C)C)C(=O)C/C=C(/C)C(=O)O1 [Compound 1, disciformycin A] | > 64 | > 64 | > 64 | 4 (≈ 7.62 µM) | > 64 |  | > 64 |  | > 64 | > 64 | > 64 | 64 (≈ 122 µM) | > 64 |

Reference: patent publication US20200231562A1, “NOVEL MACROLIDE ANTIBIOTICS” (HELMHOLTZ-ZENTRUM FÜR INFEKTIONSFORSCHUNG GMBH, priority 2014, published 2020)
